Assays:
[1] = compound: C1CN(CCC1(C(=O)N[C@@H](CCO)C2=CC=C(C=C2)Cl)N)C3=NC=NC4=C3C=CN4 [Capivasertib]; details: max 10 µM
How it was run: (§1)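 Cancer cell lines were seeded into 1536-well plates in 7.5 μl medium (DMEM/F12 or RPMI, 10% FBS), held 24 hours at 37°C and 5% CO2, and dosed for 72 hours with final DMSO typically 0.2%. Luminescence from CellTiter-Glo 2.0, scaled between blank-well and DMSO-well means, served as viability. The single-agent IC50 was obtained from dose-response fits with a non-linear mixed effects model, each fit being a two-parameter logistic curve.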

[2] = compound: CCc1c2c(nc3ccc(O)cc13)-c1cc3c(c(=O)n1C2)COC(=O)[C@]3(O)CC [SN-38]; details: max 0.3 µM
How it was run: as §1

[3] = compound: O=C(c1cc(Cc2n[nH]c(=O)c3ccccc23)ccc1F)N1CCN(C(=O)C2CC2)CC1 [Olaparib]; details: max 10 µM
How it was run: as §1

[4] = compound: CCN(CCO)CCCOc1ccc2c(Nc3cc(CC(=O)Nc4cccc(F)c4)[nH]n3)ncnc2c1 [AZD2811]; details: max 1 µM
How it was run: as §1

[5] = compound: COc1cccc(OCCCN)c1-c1cc(Nc2cnc(C#N)cn2)n[nH]1 [Prexasertib]; details: max 1 µM
How it was run: as §1

[6] = compound: C[C@@H]1COCCN1C2=NC(=NC(=C2)C3(CC3)[S@](=N)(=O)C)C4=C5C=CNC5=NC=C4 [AZD6738]; details: max 10 µM
How it was run: as §1

[7] = compound: C[C@@H](Oc1cc(-c2cnn(C3CCNCC3)c2)cnc1N)c1c(Cl)ccc(F)c1Cl [Crizotinib]; details: max 10 µM
How it was run: as §1

[8] = compound: CC1=CN2[C@@H](C1)C=NC3=CC(=C(C=C3C2=O)OC)OCCCCCOC4=C(C=C5C(=C4)N=C[C@@H]6CC(=CN6C5=O)C)OC [SG3199]; details: max 0.001 µM
How it was run: as §1

[9] = compound: NC1(c2ccc(-c3nc4ccn5c(=O)[nH]nc5c4cc3-c3ccccc3)cc2)CCC1 [MK-2206]; details: max 10 µM
How it was run: as §1

[10] = compound: C[C@@H](Nc1cc(F)cc(F)c1)c1cc(C(=O)N(C)C)cc2c(=O)cc(N3CCOCC3)oc12 [AZD8186]; details: max 3 µM
How it was run: as §1

[11] = compound: CC1(C)CCC(CN2CCN(c3ccc(C(=O)NS(=O)(=O)c4ccc(NCC5CCOCC5)c([N+](=O)[O-])c4)c(Oc4cnc5[nH]ccc5c4)c3)CC2)=C(c2ccc(Cl)cc2)C1 [Venetoclax]; details: max 1 µM
How it was run: as §1

[12] = compound: CC(=O)c1c(C)c2cnc(Nc3ccc(N4CCNCC4)cn3)nc2n(C2CCCC2)c1=O [Palbociclib]; details: max 10 µM
How it was run: as §1

[13] = compound: C=CCn1c(=O)c2cnc(Nc3ccc(N4CCN(C)CC4)cc3)nc2n1-c1cccc(C(C)(C)O)n1 [AZD1775]; details: max 3 µM
How it was run: as §1

[14] = compound: COc1cc2ncnc(Nc3ccc(F)c(Cl)c3)c2cc1OCCCN1CCOCC1 [Gefitinib]; details: max 10 µM
How it was run: as §1

[15] = compound: CN(CC[C@H](CSC1=CC=CC=C1)NC2=C(C=C(C=C2)S(=O)(=O)NC(=O)C3=CC=C(C=C3)N4CCC(CC4)[C@H](C5=CC=CC=C5C6=CC=C(C=C6)Cl)O)S(=O)(=O)C(F)(F)F)CCO [AZD4320]; details: max 1 µM
How it was run: as §1

[16] = compound: Cc1c2c(nn1C)CSCc1cc(n(C)n1)CSc1cc(c3ccccc3c1)OCCCc1c(C(=O)O)n(C)c3c-2c(Cl)ccc13 [AZD5991]; details: max 1 µM
How it was run: as §1

[17] = compound: COc1cc(Nc2ncc3c(n2)-c2ccc(Cl)cc2C(c2c(F)cccc2OC)=NC3)ccc1C(=O)O [Alisertib]; details: max 10 µM
How it was run: as §1

[18] = compound: CN(C)CCCOc1ccc(-c2ccc3ncc4c(c3c2)n(C2CCOCC2)c(=O)n4C)cn1 [AZD0156]; details: max 3 µM
How it was run: as §1

[19] = compound: CC(=O)Nc1cccc(-n2c(=O)n(C3CC3)c(=O)c3c(Nc4ccc(I)cc4F)n(C)c(=O)c(C)c32)c1 [Trametinib]; details: max 1 µM
How it was run: as §1

[20] = compound: COc1nnc2ccc(N3CCC(c4ccc(OCCN5CCN(C)C(=O)[C@H]5C)cc4)CC3)nn12 [AZD5153]; details: max 1 µM
How it was run: as §1

[21] = compound: CS(=O)(=O)CCNCc1ccc(-c2ccc3ncnc(Nc4ccc(OCc5cccc(F)c5)c(Cl)c4)c3c2)o1 [Lapatinib]; details: max 10 µM
How it was run: as §1

[22] = compound: Cn1cnc2c(F)c(Nc3ccc(Br)cc3Cl)c(C(=O)NOCCO)cc21 [Selumetinib]; details: max 10 µM
How it was run: as §1

[23] = compound: Cc1cc2ncnn2cc1Nc1ncc2c(n1)n(C1CCOCC1)c(=O)n2C [AZD7648]; details: max 10 µM
How it was run: as §1

[24] = compound: C[C@@H](c1ccc2nccn2c1)n1nnc2ncc(-c3cnn(C)c3)nc21 [Savolitinib]; details: max 1 µM
How it was run: as §1

[25] = compound: CC(C)n1c(=O)n(C)c2cnc3cc(F)c(-c4ccc(OCCCN5CCCCC5)nc4)cc3c21 [AZD1390]; details: max 0.3 µM
How it was run: as §1

[26] = compound: Cc1nc(-c2cn3c(n2)-c2ccc(-c4cnn(C(C)(C)C(N)=O)c4)cc2OCC3)n(C(C)C)n1 [Taselisib]; details: max 10 µM
How it was run: as §1

[27] = compound: COc1cccc2c1C(=O)c1c(O)c3c(c(O)c1C2=O)C[C@@](O)(C(=O)CO)C[C@@H]3O[C@H]1C[C@H](N)[C@H](O)[C@H](C)O1 [Doxorubicin]; details: max 1 µM
How it was run: as §1

[28] = compound: CC1=C(C(=CC=C1)Cl)NC(=O)C2=CN=C(S2)NC3=CC(=NC(=N3)C)N4CCN(CC4)CCO [Dasatinib]; details: max 2 µM
How it was run: as §1

Cell Line	IC50, cell viability 72 h [1] [nM]	IC50, cell viability 72 h [2] [nM]	IC50, cell viability 72 h [3] [nM]	IC50, cell viability 72 h [4] [nM]	IC50, cell viability 72 h [5] [nM]	IC50, cell viability 72 h [6] [nM]	IC50, cell viability 72 h [7] [nM]	IC50, cell viability 72 h [8] [nM]	IC50, cell viability 72 h [9] [nM]	IC50, cell viability 72 h [10] [nM]	IC50, cell viability 72 h [11] [nM]	IC50, cell viability 72 h [12] [nM]	IC50, cell viability 72 h [13] [nM]	IC50, cell viability 72 h [14] [nM]	IC50, cell viability 72 h [15] [nM]	IC50, cell viability 72 h [16] [nM]	IC50, cell viability 72 h [17] [nM]	IC50, cell viability 72 h [18] [nM]	IC50, cell viability 72 h [19] [nM]	IC50, cell viability 72 h [20] [nM]	IC50, cell viability 72 h [21] [nM]	IC50, cell viability 72 h [22] [nM]	IC50, cell viability 72 h [23] [nM]	IC50, cell viability 72 h [24] [nM]	IC50, cell viability 72 h [25] [nM]	IC50, cell viability 72 h [26] [nM]	IC50, cell viability 72 h [27] [nM]	IC50, cell viability 72 h [28] [nM]
COLO-829 (Melanoma)	> 10000	> 300	> 10000	> 1000	> 1000	> 10000	> 10000	> 1	> 10000	> 3000	> 1000	> 10000	> 3000	> 10000	> 1000	> 1000	> 10000	> 3000	279	> 1000	> 10000	8420	> 10000	> 1000	> 300	> 10000	> 1000	598
KYSE-410 (Esophageal Squamous Cell Carcinoma)	> 10000	> 300	> 10000	> 1000	952	> 10000	> 10000	> 1		> 3000	> 1000	> 10000	2210	> 10000	> 1000	> 1000	> 10000	> 3000	> 1000	> 1000	8740	> 10000	> 10000	> 1000	> 300	2710	> 1000	1900
NCI-H747 (Colorectal Carcinoma)	4660	> 300	> 10000	> 1000	> 1000	> 10000	> 10000	> 1	2200	> 3000	> 1000	> 10000	2510	> 10000	> 1000	> 1000	> 10000	> 3000	5.4	101	> 10000	309	> 10000	> 1000	> 300	2380	> 1000	542
LB771-HNC (Head and Neck Carcinoma)	> 10000	> 300	> 10000	> 1000	367	> 10000	> 10000	> 1		> 3000	> 1000	> 10000	742	> 10000	> 1000	> 1000	6250	> 3000	> 1000	> 1000	> 10000	> 10000	> 10000	> 1000	> 300	2670	> 1000	> 2000

Reference: the supplement of paper PMC11061612
